# Patent publication US10399933B2, “Inhibitors of indoleamine-2,3-dioxygenase for the treatment of cancer” (BRISTOL-MYERS SQUIBB COMPANY, priority 2015, dated 2019)
# Molecular target: T1, human IDO1 (Homo sapiens, UniProt P14902)
# Experiment: Human IDO-1 inhibitory activity in Hela cells (interferon-gamma stimulated)
# Format: cell-based
# Design: endogenous in cells; host or cells: HeLa cells stimulated with interferon-gamma
# Conditions: 18 hours, unstimulated wells = 100% inhibition
# Experimental: HeLa cells were seeded at 20,000 cells per 30 μL per well with RPMI/phenol red free media containing 10% FBS in a 384-well tissue culture plate (black with clear bottoms). 50 nL of compound was added to cells and incubated at 37° C. for one hour. 20 μL of the recombinant human Interferon-gamma (R&D System, Cat. #285-IF, at final concentration of 10 ng/ml) or recombinant murine Interferon-gamma (PEPROTECH® Inc., Cat. #315-05, final concentration of 5 ng/ml) was added to activate IDO signaling. The cells were incubated for 18 hours in 37° C. incubator with 5% CO2.
# Compound treatment was stopped by adding 5 μl trichloroacetic acid to a final concentration of 3%. Subsequently, the cell plate was further incubated at 50° C. for 30 minute. An equal volume supernatant (20 μL) and 2% (w/v) Ehrlich reagent (4-dimethylaminobenzaldehyde) in glacial acetic acid were mixed in a new clear bottom 384-well plate. This plate was incubated at room temperature for 30 minutes. Absorbance at 490 nm was measured on Envision plate reader.
# Compound IC50 values were calculated using counts from unstimulated (no INF-gamma treatment) wells as 100% inhibition. INF-gamma treatment without compound treatment as 0% inhibition.
# T1 sequence (P14902 whole entry): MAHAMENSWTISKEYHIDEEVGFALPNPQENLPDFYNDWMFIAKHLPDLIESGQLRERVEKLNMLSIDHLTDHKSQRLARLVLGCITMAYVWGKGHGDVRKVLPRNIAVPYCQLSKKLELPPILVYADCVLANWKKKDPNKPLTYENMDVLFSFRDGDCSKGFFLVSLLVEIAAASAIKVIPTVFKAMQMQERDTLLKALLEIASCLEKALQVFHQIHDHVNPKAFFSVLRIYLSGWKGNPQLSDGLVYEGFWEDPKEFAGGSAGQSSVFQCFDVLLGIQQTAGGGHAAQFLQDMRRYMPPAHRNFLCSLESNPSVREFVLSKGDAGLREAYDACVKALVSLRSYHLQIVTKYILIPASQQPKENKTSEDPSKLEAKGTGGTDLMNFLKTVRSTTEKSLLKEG
row,Molecule,IC50 [nM]
1,"COCC(CC(=O)O)c1ccc(N2C[C@@H](C)O[C@@H](C)C2)c(NC(=O)Nc2ccc(C#N)cc2)c1 (single isomer, unassigned) [Example 605 Diastereomer 2]",> 50
2,"COCC(CC(=O)O)c1ccc(N2C[C@@H](C)O[C@@H](C)C2)c(NC(=O)Nc2ccc(Cl)cc2F)c1 (single isomer, unassigned) [Example 607]",> 50
3,"CC(CC(=O)O)c1ccc(N2C[C@@H](C)O[C@@H](C)C2)c(NC(=O)Nc2ccc(Cl)cc2F)c1 (single isomer, unassigned) [Example 749 Enantiomer 2]",> 50
4,"CCN(c1cc(F)c(C(COC)CC(=O)O)cc1Nc1ccc(C#N)cc1F)C1CCOCC1 (single isomer, unassigned) [Example 854, 3-(5-((4-cyano-2-fluorophenyl)amino)-4-(ethyl(tetrahydro-2H-pyran-4-yl)amino)-2-fluorophenyl)-4-methoxybutanoic acid]",< 5
5,"CCC(CC(=O)O)c1ccc(N(CCOC)C2CCOCC2)c(NC(=O)Nc2ccc(C)cc2)c1 (single isomer, unassigned) [Example 1264 E2, 3-(4-((2-Methoxyethyl)(tetrahydro-2H-pyran-4-yl)amino)-3-(3-(p-tolyl)ureido)phenyl)pentanoic Acid]",> 50
6,"COCC(CC(=O)O)c1ccc(N2CCOC(C)(C)C2)c(Nc2ccc(Cl)cc2)c1 (single isomer, unassigned) [Example 1315 E2, 3-(3-((4-Chlorophenyl)amino)-4-(2,2-dimethylmorpholino)phenyl)-4-methoxybutanoic Acid]",> 50
7,"COCC(CC(=O)O)c1ccc(N2CCOC(C)(C)C2)c(NC(=O)Nc2ccc(Cl)cc2F)c1 (single isomer, unassigned) [Example 1318 E2, 3-(3-(3-(4-Chloro-2-fluorophenyl)ureido)-4-(2,2-dimethylmorpholino)phenyl)-4-methoxybutanoic Acid]",> 50
8,"CCC(CC(=O)O)c1ccc(N2CCOC(C)(C)C2)c(NC(=O)Nc2ccc(Cl)cc2F)c1 (single isomer, unassigned) [Example 1322 E2, 3-(3-(3-(4-Chloro-2-fluorophenyl)ureido)-4-(2,2-dimethylmorpholino)phenyl)pentanoic Acid]",> 50
9,"COC[C@H](CC(=O)O)c1ccc(N2CCOc3ccccc32)c(Nc2ccc(C#N)cc2)c1 (single isomer, unassigned) [Example 1359]",> 50
10,"(R)-3-(3-((4-chlorophenyl)amino)- 4-((1,1-dioxidotetrahydro-2H- thiopyran-4-yl)(ethyl)amino) phenyl)-4-isopropoxybutanoic acid [Example 330]",< 5
11,"(R)-3-(4-((1,1-dioxidotetrahydro- 2H-thiopyran-4-yl)(ethyl)amino)- 3-((2-ethoxypyrimidin-5- yl)amino)phenyl)-4- isopropoxybutanoic acid [Example 333]",> 50
12,"(R)-3-(4-((1,1-dioxidotetrahydro- 2H-thiopyran-4-yl)(ethyl)amino)- 3-((4-fluorophenyl)amino)phenyl)- 4-isopropoxybutanoic acid [Example 331]",< 50
13,"(R)-3-(4-(ethyl(tetrahydro-2H- pyran-4-yl)amino)-3-((3- (1,1,2,2-tetrafluoroethoxy) phenyl)amino)phenyl)-4- methoxybutanoic acid [Example 398]",< 5
14,"(S)-3-(4-((1,1-dioxidotetrahydro- 2H-thiopyran-4-yl)(ethyl)amino)- 3-((2-ethoxypyrimidin-5-yl)amino) phenyl)-4-isopropoxybutanoic acid [Example 328]",> 50
15,"(S)-3-(4-((1,1-dioxidotetrahydro- 2H-thiopyran-4-yl)(ethyl)amino)- 3-((4-fluorophenyl)amino)phenyl)- 4-isopropoxybutanoic acid [Example 326]",< 50

# Next, values leading:
row,IC50 [nM],Molecule
1,> 50,"COCC(CC(=O)O)c1ccc(N2C[C@@H](C)O[C@@H](C)C2)c(Nc2ccc(Cl)cc2)c1 (single isomer, unassigned) [Example 604]"
2,> 50,"CCC(CC(=O)O)c1ccc(N2CCN(C(=O)OC)CC2)c(Nc2ccc(C#N)cc2)c1 (single isomer, unassigned) [Example 668 Enantiomer 2, 3-(3-((4-Cyanophenyl)amino)-4-(4-(methoxycarbonyl)piperazin-1-yl)phenyl)pentanoic Acid]"
3,> 50,"CCC(CC(=O)O)c1ccc(N2CCNCC2)c(Nc2ccc(C#N)cc2)c1 (single isomer, unassigned) [Example 671 Enantiomer 2, 3-(3-((4-Cyanophenyl)amino)-4-(piperazin-1-yl)phenyl) pentanoic Acid]"
4,< 5,"CCN(c1cc(F)c(C(COC)CC(=O)O)cc1Nc1ccc(C#N)c(F)c1)C1CCOCC1 (single isomer, unassigned) [Example 853, 3-(5-((4-cyano-3-fluorophenyl)amino)-4-(ethyl(tetrahydro-2H-pyran-4-yl)amino)-2-fluorophenyl)-4-methoxybutanoic acid]"
5,< 5,"CCC(CC(=O)O)c1ccc(N(CCOC)C2CCOCC2)c(Nc2ccc(Cl)cc2)c1 (single isomer, unassigned) [Example 1257 E2, 3-(3-((4-Chlorophenyl)amino)-4-((2-methoxyethyl)(tetrahydro-2H-pyran-4-yl)amino)phenyl)pentanoic Acid]"
6,> 50,"COCC(CC(=O)O)c1ccc(N2CCOC(C)C2)c(Nc2ccc(Cl)cc2)c1 (single isomer, unassigned) [Example 1311 D1, 3-(3-((4-Chlorophenyl)amino)-4-(2-methylmorpholino)phenyl)-4-methoxybutanoic Acid]"
7,> 50,"COCC(CC(=O)O)c1ccc(N2CCOC(C)C2)c(NC(=O)Nc2ccc(Cl)cc2F)c1 (single isomer, unassigned) [Example 1314 D2, 3-(3-(3-(4-Chloro-2-fluorophenyl)ureido)-4-(2-methylmorpholino)phenyl)-4-methoxybutanoic Acid]"
8,< 50,"CCC(CC(=O)O)c1ccc(N2CCOC(C)(C)C2)c(Nc2ccc(Cl)cc2)c1 (single isomer, unassigned) [Example 1319 E2, 3-(3-((4-Chlorophenyl)amino)-4-(2,2-dimethylmorpholino)phenyl)pentanoic Acid]"
9,> 50,"COC[C@@H](CC(=O)O)c1ccc(N2CCOc3ccccc32)c(Nc2ccc(C#N)cc2)c1 (single isomer, unassigned) [Example 1358]"
10,< 50,CCN(c1ccc(C(COC(C)C)CC(=O)O)cc1Nc1ccc(F)cc1)C1CCS(=O)(=O)CC1 (stereo not drawn) [Example 340]
11,< 50,(R)-3-(3-((4-cyano-3- methylphenyl)amino)-4- (ethyl(tetrahydro-2H-pyran-4- yl)amino)phenyl)-4- methoxybutanoic acid [Example 391]
12,> 50,"(R)-3-(4-((1,1-dioxidotetrahydro- 2H-thiopyran-4-yl)(ethyl)amino)- 3-((2-methoxypyrimidin-5- yl)amino)phenyl)-4- isopropoxybutanoic acid [Example 332]"
13,> 50,(R)-3-(4-(ethyl(tetrahydro-2H- pyran-4-yl)amino)-3-((2- (tetrahydro-2H-pyran-4- yl)pyrimidin-5-yl)amino) phenyl)-4-methoxybutanoic acid [Example 403]
14,< 5,"(S)-3-(3-((4-chlorophenyl)amino)- 4-((1,1-dioxidotetrahydro-2H- thiopyran-4-yl)(ethyl)amino) phenyl)-4-isopropoxybutanoic acid [Example 325]"
15,< 50,(S)-3-(3-((4-cyano-3- ethoxyphenyl)amino)-4- (ethyl(tetrahydro-2H-pyran- 4-yl)amino)phenyl)-4- methoxybutanoic acid [Example 380]
16,> 50,"(S)-3-(4-((1,1-dioxidotetrahydro- 2H-thiopyran-4-yl)(ethyl)amino)- 3-((2-methoxypyrimidin-5- yl)amino)phenyl)-4- isopropoxybutanoic acid [Example 327]"
17,> 50,(S)-3-(4-(ethyl(tetrahydro- 2H-pyran-4-yl)amino)-3-((2- (tetrahydro-2H-pyran-4- yl)pyrimidin-5-yl)amino) phenyl)-4-methoxybutanoic acid [Example 366]

# Molecular target: T1, human IDO1
# Experiment: Human IDO-1 inhibitory activity in HEK cells (human IDO1/HEK293 cellular assay)
# Format: cell-based
# Design: expressed in transfected cells
# Conditions: HEK human IDO-1 cellular assay; 500 nM reference standard = 100% inhibition, DMSO = 0%
# Experimental: They were cultured in medium (DMEM with 10% FBS) containing 1 mg/ml G418 for two weeks.
# The human IDO1/HEK293 cells were seeded at 10,000 cells per 50 μL per well with RPMI/phenol red free media contains 10% FBS in a 384-well black wall clear bottom tissue culture plate (Matrix Technologies LLC) 100 nL of certain concentration of compound was then added to each well using ECHO liquid handling systems. The cells were incubated for 20 hours in 37° C. incubator with 5% CO2.
# The compound treatments were stopped by adding trichloroacetic acid (Sigma-Aldrich) to a final concentration at 0.2%. The cell plate was further incubated at 50° C. for 30 minute. The equal volume supernatant (20 μL) and 0.2% (w/v) Ehrlich reagent (4-dimethylaminobenzaldehyde, Sigma-Aldrich) in glacial acetic acid were mixed in a new clear bottom 384-well plate. This plate was then incubated at room temperature for 30 minute. The absorbance at 490 nm was measured on Envision plate reader.
row,IC50 [nM],Molecule
1,< 50,"3-(4-((1,1- dioxidotetrahydro-2H- thiopyran-4-yl)(ethyl) amino)-3-((4-fluorophenyl) amino)phenyl)-4- isopropoxybutanoic acid [Example 300]"
